{"source": "patent US9079913B2", "about": "“Spiro-oxindole MDM2 antagonists” (The Regents of the University of Michigan, priority 2009, dated 2015)", "key": {"[1]": {"system": "SJSA-1 xenograft tumors", "experiment": "In vivo efficacy, SJSA-1 xenograft model (tumor volume)", "parameters": "species or system C.B-17 SCID mice", "conditions": "PO 300 mg/kg", "procedure": "SJSA-1 tumor cells were harvested with Trypsin (0.05%)-EDTA (0.53 mM) (GIBCO™, Invitrogen Corp.), growth medium added and cells placed on ice. A cell sample was mixed 1:1 with Trypan Blue (GIBCO™, Invitrogen Corp.) and counted on a hemocytometer to determine the number of live/dead cells. Cells were washed once with 1×PBS (GIBCO™, Invitrogen Corp.) and resuspended in PBS. For Matrigel injections, after washing in PBS, cells are resuspended in an ice cold mixture of 1:1 PBS and Matrigel (BD Biosciences, Invitrogen Corp.) for a final Matrigel protein concentration of 5 mg/ml. SJSA-1 tumors were inoculated into C.B-17 SCID mice at 5×10^6 cells in 0.1 ml with Matrigel. Cells were injected s.c. into the flank region of each mouse using a 27 gauge needle.\nThe size of tumors growing in the mice was measured in two dimensions using calipers. Tumor volume (mm^3)=(A×B2)/2 where A and B are the tumor length and width (in mm), respectively. During treatment, tumor volume and body weight was measured three times a week. […] Mice were kept for an additional 60 days for further observation of tumor growth and toxicity.\nMice with tumors within acceptable size range were randomized into treatment groups of 8 mice for experimental compounds and 10 mice for the Control group. Experimental compounds were given orally, once per day for 2-3 weeks."}, "[2]": {"experiment": "Pharmacokinetic studies in ICR mice", "assay_type": "in vivo", "parameters": "Measured concentrations in the plasma samples: unit not given here", "conditions": "for Measured concentrations in the plasma samples: single i.v. dose 10 mg/kg; for Plasma Concentrations: single p.o dose 50 mg/kg"}, "[3]": {"system": "SJSA-1 xenograft tumors", "conditions": "mice bearing SJSA-1 xenograft, oral 200-300 mg/kg daily or twice a day, 2 weeks; cited from earlier work"}, "[4]": {"experiment": "Pharmacokinetic studies in Beagle dogs", "assay_type": "in vivo"}, "[5]": {"experiment": "In vitro microsomal stability, human", "assay_type": "in vitro ADME", "conditions": "for Microsomal stability, % remaining: Human microsomes"}}, "note": "Values joined by “and” are separate entries in the source; they are usually repeats but may differ in a detail not shown here. Equal entries are not always repeated.", "data": [{"substance": "MI-219", "values": [{"measurement": "% Tumor Growth Inhib. T/C Control 750 mm^3 D27", "setting": "[1]; Exp. No. 1, SJSA-1 xenograft, D27", "result": 44.3, "unit": "%"}, {"measurement": "% Tumor Growth Inhib. T/C Control 750 mm^3 D24", "setting": "[1]; Exp. No. 2, SJSA-1 xenograft, D24", "result": 30.1, "unit": "%"}, {"measurement": "% Tumor Growth Inhib. T/C Control 750 mm^3 D29", "setting": "[1]; Exp. No. 3, SJSA-1 xenograft, D29", "result": 15.8, "unit": "%"}, {"measurement": "AUC", "setting": "[2]; 50 mg/kg oral dosing", "result": "8469 ± 2381", "unit": "ng·h/mL"}, {"measurement": "AUC 0→9 h", "setting": "[2]; p.o. 50 mg/kg", "result": "26839 ng·h/mL and 16158 ng·h/mL and 14622 ng·h/mL"}, {"measurement": "F", "setting": "[2]; p.o. 50 mg/kg", "result": "76.7% and 46.2% and 41.8% and 54.9 ± 19.0%"}, {"measurement": "Kel", "setting": "[2]; p.o. 50 mg/kg", "result": "0.37 and 0.69"}, {"measurement": "MRT", "setting": "[2]; p.o. 50 mg/kg", "result": "2.5813 h and 2.043 h and 2.2585 h"}, {"measurement": "Tmax", "setting": "[2]; p.o. 50 mg/kg", "result": 2, "unit": "h"}, {"measurement": "Cmax", "setting": "[2]; p.o. 50 mg/kg, groups and Mean ± SD", "result": "10399 ng/mL and 9201 ng/mL and 9082 ng/mL and 9561 ± 728 ng/mL"}, {"measurement": "AUC 0→9 h", "setting": "[2]; p.o. 50 mg/kg, mean", "result": "19206 ± 6655", "unit": "ng·h/mL"}, {"measurement": "Kel", "setting": "[2]; p.o. 50 mg/kg, mean", "result": "0.47 ± 0.19"}, {"measurement": "MRT", "setting": "[2]; p.o. 50 mg/kg, mean", "result": "2.29 ± 0.27", "unit": "h"}, {"measurement": "Measured concentrations in the plasma samples", "setting": "[2]; 5 min, groups and Mean ± SD, mean", "result": "18041 ± 3799"}, {"measurement": "Measured concentrations in the plasma samples", "setting": "[2]; 15 min, mean", "result": "5823 ± 701"}, {"measurement": "Measured concentrations in the plasma samples", "setting": "[2]; 30 min, mean", "result": "3570 ± 871"}, {"measurement": "Measured concentrations in the plasma samples", "setting": "[2]; 45 min, mean", "result": "1731 ± 429"}, {"measurement": "Measured concentrations in the plasma samples", "setting": "[2]; 1 h, mean", "result": "1223 ± 141"}, {"measurement": "Measured concentrations in the plasma samples", "setting": "[2]; 24 h", "result": "BLQ"}, {"measurement": "Plasma Concentrations", "setting": "[2]; 15 min", "result": "2927 ng/mL and 1700 ng/mL and 1503 ng/mL"}, {"measurement": "Plasma Concentrations", "setting": "[2]; 15 min, mean", "result": "2043 ± 772", "unit": "ng/mL"}, {"measurement": "Plasma Concentrations", "setting": "[2]; 2 h", "result": "10399 ng/mL and 9201 ng/mL and 5808 ng/mL"}, {"measurement": "Plasma Concentrations", "setting": "[2]; 2 h, mean", "result": "8469 ± 2381", "unit": "ng/mL"}, {"measurement": "Plasma Concentrations", "setting": "[2]; 5 h", "result": "522 ng/mL and 277 ng/mL and 334 ng/mL"}, {"measurement": "Plasma Concentrations", "setting": "[2]; 5 h, mean", "result": "378 ± 128", "unit": "ng/mL"}, {"measurement": "Plasma Concentrations", "setting": "[2]; 24 h", "result": "Beyond"}, {"measurement": "tumor growth inhibition (in words)", "setting": "[3]", "result": "effective tumor growth inhibition"}, {"measurement": "oral bioavailability in dogs (in words)", "setting": "[4]", "result": "orally bioavailable"}, {"measurement": "AUC", "setting": "[4]; 10 mg/kg oral dosing", "result": "7947 ± 2396", "unit": "ng·h/mL"}, {"measurement": "MRT", "setting": "[4]; IV 2.0 mg/kg", "result": "1.22 h and 1.81 h and 1.87 h"}, {"measurement": "Plasma Concentration", "setting": "[4]; IV 2.0 mg/kg, 0.117 h, dogs and Mean", "result": "4069 ng/mL and 7668 ng/mL"}, {"measurement": "Plasma Concentration", "setting": "[4]; IV 2.0 mg/kg, 0.117 h, dogs and Mean, mean", "result": 5868, "unit": "ng/mL"}, {"measurement": "Plasma Concentration", "setting": "[4]; IV 2.0 mg/kg, 0.20 h", "result": "2623 ng/mL and 2272 ng/mL and 3918 ng/mL"}, {"measurement": "Plasma Concentration", "setting": "[4]; IV 2.0 mg/kg, 0.20 h, mean", "result": 2938, "unit": "ng/mL"}, {"measurement": "Plasma Concentration", "setting": "[4]; IV 2.0 mg/kg, 0.5 h", "result": "1888 ng/mL and 1192 ng/mL and 1795 ng/mL"}, {"measurement": "Plasma Concentration", "setting": "[4]; IV 2.0 mg/kg, 0.5 h, mean", "result": 1625, "unit": "ng/mL"}, {"measurement": "Plasma Concentration", "setting": "[4]; IV 2.0 mg/kg, 1.0 h", "result": "853 ng/mL and 704 ng/mL and 1044 ng/mL"}, {"measurement": "Plasma Concentration", "setting": "[4]; IV 2.0 mg/kg, 1.0 h, mean", "result": 867, "unit": "ng/mL"}, {"measurement": "Plasma Concentration", "setting": "[4]; IV 2.0 mg/kg, 3.0 h", "result": "331 ng/mL and 402 ng/mL"}, {"measurement": "Plasma Concentration", "setting": "[4]; IV 2.0 mg/kg, 3.0 h, mean", "result": 367, "unit": "ng/mL"}, {"measurement": "Plasma Concentration", "setting": "[4]; IV 2.0 mg/kg, 4.0 h", "result": "256 ng/mL and 188 ng/mL and 248 ng/mL"}, {"measurement": "Plasma Concentration", "setting": "[4]; IV 2.0 mg/kg, 4.0 h, mean", "result": 231, "unit": "ng/mL"}, {"measurement": "Plasma Concentration", "setting": "[4]; IV 2.0 mg/kg, 6.0 h", "result": "114.3 ng/mL and 81.1 ng/mL and 119 ng/mL"}, {"measurement": "Plasma Concentration", "setting": "[4]; IV 2.0 mg/kg, 6.0 h, mean", "result": 105, "unit": "ng/mL"}, {"measurement": "Plasma Concentration", "setting": "[4]; IV 2.0 mg/kg, 8.0 h", "result": "52.2 ng/mL and 39.7 ng/mL and 57.8 ng/mL"}, {"measurement": "Plasma Concentration", "setting": "[4]; IV 2.0 mg/kg, 8.0 h, mean", "result": 49.9, "unit": "ng/mL"}, {"measurement": "Plasma Concentration", "setting": "[4]; IV 2.0 mg/kg, 12 h", "result": "17.9 ng/mL and 9.75 ng/mL and 19.4 ng/mL"}, {"measurement": "Plasma Concentration", "setting": "[4]; IV 2.0 mg/kg, 12 h, mean", "result": 15.7, "unit": "ng/mL"}, {"measurement": "T½", "setting": "[4]; IV 2.0 mg/kg, dogs and Mean", "result": "4.32 h and 3.00 h and 4.36 h"}, {"measurement": "T½", "setting": "[4]; IV 2.0 mg/kg, dogs and Mean, mean", "result": 3.90, "unit": "h"}, {"measurement": "MRT", "setting": "[4]; IV 2.0 mg/kg, mean", "result": 1.63, "unit": "h"}, {"measurement": "AUC(0-t)", "setting": "[4]; PO 10 mg/kg", "result": "9665 ng·h/mL and 5210 ng·h/mL and 8967 ng·h/mL"}, {"measurement": "AUC(0-∞)", "setting": "[4]; PO 10 mg/kg", "result": "9681 ng·h/mL and 5226 ng·h/mL and 8985 ng·h/mL"}, {"measurement": "Cmax", "setting": "[4]; PO 10 mg/kg", "result": "3001 ng/mL and 3560 ng/mL and 2119 ng/mL and 3323 ng/mL"}, {"measurement": "F", "setting": "[4]; PO 10 mg/kg", "result": "26.1% and 26.8% and 28.6%"}, {"measurement": "MRT", "setting": "[4]; PO 10 mg/kg", "result": "3.09 h and 2.71 h and 3.33 h"}, {"measurement": "Tmax", "setting": "[4]; PO 10 mg/kg", "result": "0.83 h and 1.0 h and 0.5 h"}, {"measurement": "Plasma Concentration", "setting": "[4]; PO 10 mg/kg, 0.5 h, dogs and Mean", "result": "2101 ng/mL and 1842 ng/mL and 3323 ng/mL"}, {"measurement": "Plasma Concentration", "setting": "[4]; PO 10 mg/kg, 0.5 h, dogs and Mean, mean", "result": 2422, "unit": "ng/mL"}, {"measurement": "Plasma Concentration", "setting": "[4]; PO 10 mg/kg, 1 h", "result": "3560 ng/mL and 2119 ng/mL and 2999 ng/mL"}, {"measurement": "Plasma Concentration", "setting": "[4]; PO 10 mg/kg, 1 h, mean", "result": 2893, "unit": "ng/mL"}, {"measurement": "Plasma Concentration", "setting": "[4]; PO 10 mg/kg, 4 h", "result": "483 ng/mL and 603 ng/mL and 312 ng/mL and 535 ng/mL"}, {"measurement": "Plasma Concentration", "setting": "[4]; PO 10 mg/kg, 24 h", "result": "4.05 ng/mL and 3.78 ng/mL and 4.48 ng/mL"}, {"measurement": "Plasma Concentration", "setting": "[4]; PO 10 mg/kg, 24 h, mean", "result": 4.10, "unit": "ng/mL"}, {"measurement": "T½", "setting": "[4]; PO 10 mg/kg, dogs and Mean", "result": "2.77 h and 3.03 h and 2.81 h"}, {"measurement": "T½", "setting": "[4]; PO 10 mg/kg, dogs and Mean, mean", "result": 2.87, "unit": "h"}, {"measurement": "AUC(0-t)", "setting": "[4]; PO 10 mg/kg, mean", "result": 7947, "unit": "ng·h/mL"}, {"measurement": "AUC(0-∞)", "setting": "[4]; PO 10 mg/kg, mean", "result": 7964, "unit": "ng·h/mL"}, {"measurement": "MRT", "setting": "[4]; PO 10 mg/kg, mean", "result": 3.04, "unit": "h"}, {"measurement": "Microsomal stability, % remaining", "setting": "[5]; 0 min", "result": 100.00, "unit": "%"}, {"measurement": "Microsomal stability, % remaining", "setting": "[5]; 5 min", "result": 78.76, "unit": "%"}, {"measurement": "Microsomal stability, % remaining", "setting": "[5]; 10 min", "result": 58.19, "unit": "%"}, {"measurement": "Microsomal stability, % remaining", "setting": "[5]; 15 min", "result": 46.46, "unit": "%"}, {"measurement": "Microsomal stability, % remaining", "setting": "[5]; 30 min", "result": 26.46, "unit": "%"}, {"measurement": "Microsomal stability, % remaining", "setting": "[5]; 45 min", "result": 20.88, "unit": "%"}, {"measurement": "Microsomal stability, % remaining", "setting": "[5]; 60 min", "result": 11.86, "unit": "%"}, {"measurement": "microsomal stability (in words)", "setting": "[5]; human liver microsomes", "result": "metabolized fairly rapidly"}]}]}
